Test results published in patent US20100056519A1, “COMPOSITION AND METHOD FOR REDUCING PLATELET ACTIVATION AND FOR THE TREATMENT OF THROMBOTIC EVENTS” (priority 2008, published 2010).
Marks after values point to notes of the source that are not given here.

Experiments:
Format in all cases: cell-based, human
platelets = assay: Platelet Function Analyzer PFA-100, ADP/Collagen cartridge; settings: for Closure time (s): recording limit 300 s
Protocol: (§1) The methodology employed was conventional aggregation induced by 5 μM ADP, 1 μg/ml collagen, 10 μM TRAP, whole blood aggregation with 1 μg/ml collagen, Ultegra, and PFA-100 Analyzers, expression of 14 intact, and TRAP-stimulated major receptors by whole blood flow cytometry were utilized to assess platelet activity after preincubation with escalating concentrations of E5555 (20 ng/ml, 50 ng/ml, and 100 ng/ml). The experiments were performed in healthy volunteers, CAD patients treated with ASA, and CAD patients treated with ASA and clopidogrel combination (n=10, for each group).
(§2) An Informed Consent was obtained from all volunteers. Drug users were excluded from data analysis. The study was approved by Quorum Institutional Review Board. All subjects underwent blood sampling after at least 30 minutes of rest and two or more hours of fasting. Blood (28 ml) was drawn between 8 and 10 a.m. in order to avoid any diurnal influence and sampled from an antecubital vein using a 21-gauge butterfly needle containing 3.2% sodium citrate (1:9 volume) after having discarded the first 1.5 ml of free running blood. Four Vacutainer tubes (7.0 ml) were collected for a total of 28 ml of whole blood-citrate mixture from each study participant. Chronologically, blood samples were delivered to the core laboratory facility within 45 minutes after drawing. Then all tubes of blood-citrate mixture were pooled. One portion of pooled blood (5 ml) was kept as an internal control and pretreated with the vehicle. The remaining blood (23 ml) was used for the in vitro exposure to E5555 at concentrations of 20 ng/ml, 50 ng/ml, and 100 ng/ml. […] The platelet aggregation studies, Rapid Analyzers measures, and flow cytometry preparations were initiated within no more than 110 minutes following the blood draw, incubation with the drug, and preparation of the samples.
Whole blood aggregation was determined using a Chronolog device 592A. The whole blood-citrate mixture was diluted 1:1 with 0.5 ml phosphate buffered saline and gently swirled. The sample then was allowed to warm to 37° C. for 5 minutes then transferred to the assay well. The electrode was then placed in the cuvette and the sample was stimulated with 1 μg/ml collagen. The change in electrical impedance was digitally recorded. Each whole blood sample was analyzed utilizing 2 different clinical devices: • (1) a Rapid Platelet-Function Assay (Ultegra®) (Accumetrics, Inc., San Diego, Calif.), which is a rapid platelet-function assay aspirin cartridge test with TRAP used as agonist. Polystyrene beads coated with fibrinogen are placed in a cartridge along with the peptide that activates thrombin receptor. Anticoagulated whole blood was added to the cartridge, and agglutination between platelets and coated beads was recorded. The data mirrors turbidimetric platelet aggregation and presumably reflects platelet glycoprotein IIb/IIIa blockade. Ultegra RPFA-TRAP Assay results were reported as Platelet Activation Units (PAU); and • (2) Platelet-Function Analyzer PFA-100 ™ (Dade Behring, Deerfield Ill.), which is a high shear-inducing analyzer that simulates primary hemostasis after injury to a small vessel under flow conditions. The device provides a constant negative pressure that aspirates whole blood, which comes into contact with the collagen, coated membrane and then passes through the aperture. The time required to obtain occlusion of the aperture is digitally recorded. The time to aperture occlusion (the closure time) is recorded in seconds and is inversely related to the degree of shear-induced platelet activation. We used ADP/Collagen cartridges in the index study. Both PFA-100 and Ultegra assays were performed in duplicate. An electronic quality control test was performed on each instrument daily prior to performing any patient samples.

PMA (CD14 + CD151) = assay: TRAP-stimulated whole blood flow cytometry, platelet-monocyte aggregates; settings: Mean ± SD
Protocol: as §1, §2
(§3) Formation of platelet-leukocyte aggregates was assessed by dual labeling with pan-platelet marker (CD151), and then with CD14, the macrophage receptor for endotoxin lipopolysaccharides (PharMingen, and Coulter, San Diego, Calif., USA). The tubes were then covered with aluminum foil and incubated at 37° C. for 40 minutes with gentle rotation. After incubation, samples were immediately analyzed on a Becton Dickinson FACScan flow cytometer. The instrument was set up to measure forward light scatter, and FITC fluorescence. All parameters were collected using four-decade logarithmic amplification. The data was retrieved in list mode files and then analyzed. P selectin was expressed as percent positive cells. Other antigens were expressed as log mean fluorescence intensity.
(§4) For flow cytometry (TRAP-stimulated) all of the above flow cytometry experiments were identically repeated utilizing prestimulation with 10 μmol/L TRAP for 5 minutes at 37° C. To determine statistics, a Paired Sign Test was used to define significance of differences between vehicle and E5555-treated groups. The Mann-Whitney U test was used to analyze nonparametric data. Normally distributed data were expressed as mean±standard error (m±SE), and skewed data as median (range). All P-values were two sided. All analysis was performed using the SPSS v9.0 program (SPSS Inc., Chicago, Ill.).

LAMP-3 (CD63) = assay: TRAP-stimulated whole blood flow cytometry, LAMP-3; settings: Mean ± SD
Protocol: as §1, §2, §3, §4

GPIb (CD42b) = assay: TRAP-stimulated whole blood flow cytometry, GPIb; settings: Mean ± SD
Protocol: as §1, §2, §3, §4

CD-40L (CD154) = assay: Unstimulated whole blood flow cytometry, CD40-ligand; settings: for CD-40L (CD154), Mean Fluorescence Intensity: unstimulated, Mean ± SD
Protocol: as §1, §2, §3

[1] = E5555 20 ng/ml, Patients (ASA + C)
[2] = E5555 50 ng/ml, Patients (ASA + C)
[3] = E5555 100 ng/ml, Patients (ASA + C)
[4] = E5555 100 ng/ml, Patients (ASA)

Compound: Br.CCOc1cc2c(c(F)c1OCC)C(=N)N(CC(=O)c1cc(N3CCOCC3)c(OC)c(C(C)(C)C)c1)C2 [E5555, 1-(3-tert-butyl-4-methoxy-5-morpholinophenyl)-2-(5,6-diethoxy-7-fluoro-1-imino-1,3-dihydro-2H-isoindol-2-yl)ethanone hydrobromide]
- Closure time (s) (platelets; [1]): >300*† s
- Closure time (s) (platelets; E5555 20 ng/ml, Patients (ASA)): >300*† s
- Closure time (s) (platelets; E5555 20 ng/ml, Volunteers): >300*† s
- Closure time (s) (platelets; [2]): >300*† s
- Closure time (s) (platelets; E5555 50 ng/ml, Patients (ASA)): >300*† s
- Closure time (s) (platelets; E5555 50 ng/ml, Volunteers): >300*† s
- Closure time (s) (platelets; [3]): >300*† s
- Closure time (s) (platelets; [4]): >300*† s
- Closure time (s) (platelets; E5555 100 ng/ml, Volunteers): >300*† s
- Platelet Analyzer readings, shear-induced activation, effect in words (platelets; overall summary): reduced shear-induced activation
- PMA (CD14 + CD151), Mean Fluorescence Intensity (PMA (CD14 + CD151); [1]): 100 ± 21 MFI
- PMA (CD14 + CD151), Mean Fluorescence Intensity (PMA (CD14 + CD151); E5555 20 ng/ml, Patients (ASA)): 109 ± 23 MFI
- PMA (CD14 + CD151), Mean Fluorescence Intensity (PMA (CD14 + CD151); E5555 20 ng/ml, Volunteers): 133 ± 19 MFI
- PMA (CD14 + CD151), Mean Fluorescence Intensity (PMA (CD14 + CD151); [2]): 77 ± 23 MFI
- PMA (CD14 + CD151), Mean Fluorescence Intensity (PMA (CD14 + CD151); E5555 50 ng/ml, Patients (ASA)): 82 ± 10 MFI
- PMA (CD14 + CD151), Mean Fluorescence Intensity (PMA (CD14 + CD151); E5555 50 ng/ml, Volunteers): 118 ± 14 MFI
- PMA (CD14 + CD151), Mean Fluorescence Intensity (PMA (CD14 + CD151); [3]): 108 ± 19 MFI
- PMA (CD14 + CD151), Mean Fluorescence Intensity (PMA (CD14 + CD151); [4]): 116 ± 23 MFI
- PMA (CD14 + CD151), Mean Fluorescence Intensity (PMA (CD14 + CD151); E5555 100 ng/ml, Volunteers): 125 ± 20 MFI
- LAMP-3 (CD63), Mean Fluorescence Intensity (LAMP-3 (CD63); [1]): 20 ± 5 MFI
- LAMP-3 (CD63), Mean Fluorescence Intensity (LAMP-3 (CD63); E5555 20 ng/ml, Patients (ASA)): 24 ± 8 MFI
- LAMP-3 (CD63), Mean Fluorescence Intensity (LAMP-3 (CD63); E5555 20 ng/ml, Volunteers): 26 ± 7 MFI
- LAMP-3 (CD63), Mean Fluorescence Intensity (LAMP-3 (CD63); [2]): 5 ± 3 MFI
- LAMP-3 (CD63), Mean Fluorescence Intensity (LAMP-3 (CD63); E5555 50 ng/ml, Patients (ASA)): 9 ± 3 MFI
- LAMP-3 (CD63), Mean Fluorescence Intensity (LAMP-3 (CD63); E5555 50 ng/ml, Volunteers): 8 ± 2 MFI
- LAMP-3 (CD63), Mean Fluorescence Intensity (LAMP-3 (CD63); [3]): 4 ± 1 MFI
- LAMP-3 (CD63), Mean Fluorescence Intensity (LAMP-3 (CD63); [4]): 5 ± 1 MFI
- LAMP-3 (CD63), Mean Fluorescence Intensity (LAMP-3 (CD63); E5555 100 ng/ml, Volunteers): 7 ± 2 MFI
- GPIb (CD42b), Mean Fluorescence Intensity (GPIb (CD42b); [1]): 105 ± 14 MFI
- GPIb (CD42b), Mean Fluorescence Intensity (GPIb (CD42b); E5555 20 ng/ml, Patients (ASA)): 102 ± 9 MFI
- GPIb (CD42b), Mean Fluorescence Intensity (GPIb (CD42b); E5555 20 ng/ml, Volunteers): 134 ± 17 MFI
- GPIb (CD42b), Mean Fluorescence Intensity (GPIb (CD42b); [2]): 102 ± 19 MFI
- GPIb (CD42b), Mean Fluorescence Intensity (GPIb (CD42b); E5555 50 ng/ml, Patients (ASA)): 104 ± 17 MFI
- GPIb (CD42b), Mean Fluorescence Intensity (GPIb (CD42b); E5555 50 ng/ml, Volunteers): 125 ± 24 MFI
- GPIb (CD42b), Mean Fluorescence Intensity (GPIb (CD42b); [3]): 137 ± 18 MFI
- GPIb (CD42b), Mean Fluorescence Intensity (GPIb (CD42b); [4]): 100 ± 14 MFI
- GPIb (CD42b), Mean Fluorescence Intensity (GPIb (CD42b); E5555 100 ng/ml, Volunteers): 150 ± 26 MFI
- CD40-ligand, effect in words (CD-40L (CD154); overall summary, stimulation not stated): not affected
- CD-40L (CD154), Mean Fluorescence Intensity (CD-40L (CD154); [1]): 5.1 ± 1.0 MFI
- CD-40L (CD154), Mean Fluorescence Intensity (CD-40L (CD154); E5555 20 ng/ml, Patients (ASA)): 5.0 ± 1.0 MFI
- CD-40L (CD154), Mean Fluorescence Intensity (CD-40L (CD154); E5555 20 ng/ml, Volunteers): 5.4 ± 0.8 MFI
- CD-40L (CD154), Mean Fluorescence Intensity (CD-40L (CD154); [2]): 5.2 ± 0.7 MFI
- CD-40L (CD154), Mean Fluorescence Intensity (CD-40L (CD154); E5555 50 ng/ml, Patients (ASA)): 5.2 ± 0.8 MFI
- CD-40L (CD154), Mean Fluorescence Intensity (CD-40L (CD154); E5555 50 ng/ml, Volunteers): 5.3 ± 0.5 MFI
- CD-40L (CD154), Mean Fluorescence Intensity (CD-40L (CD154); [3]): 5.3 ± 1.3 MFI
- CD-40L (CD154), Mean Fluorescence Intensity (CD-40L (CD154); [4]): 5.1 ± 1.0 MFI
- CD-40L (CD154), Mean Fluorescence Intensity (CD-40L (CD154); E5555 100 ng/ml, Volunteers): 5.0 ± 0.9 MFI
